This is an account of results in patent US20060264411A1, “Control of biofilm formation” (priority 2005, published 2006).

The subject of experiment [1] is P. aeruginosa (ATCC 27853). The experiment is described as follows: Antibacterial effect (NCCLS MIC). The format is cell-based. The conditions noted are these: Pseudomonas aeruginosa, ATCC27853, studied at 64 μg/mL, read-out: MIC (minimal inhibitory concentration). On the procedure:
Using the appropriate NCCLS procedures, the antibacterial effect of asiatic acid on Haemophilus influenzae (ATCC 10211), E. coli (ATCC 25922), and P. aeruginosa (ATCC 27853) was studied at 64 μg/mL.

The next experiment concerns cysB gene. The note with it: examples of U.S. patent application Ser. No. 11/085,279; cited from earlier work.
Experiment [2] concerns E. coli clinical strain UTI89. The experiment is described as follows: Biofilm formation inhibition, crystal violet, E. coli clinical strain UTI89. It counts as cell-based. The conditions noted are these: Escherichia coli, read-out: inhibited biofilm formation as compared to the controls. On the procedure: (§1) Biofilm inhibition experiments were conducted using an assay adapted from the reported protocol described in Pratt and Kolter, 1998, Molecular Microbiology, 30: 285-293; Li et al., 2001, J. Bacteriol., 183: 897-908. E. coli clinical strain UTI89 was grown in LB in 96 well plates at room temperature for one or two days without shaking. E. coli laboratory strain JM109 was grown in LB plus 0.2% glucose in 96 well plates at room temperature for one day without shaking. To quantify the biofilm mass, the suspension culture was poured out and the biofilm was washed three times with water. The biofilm was stained with 0.1% crystal violet for 20 minutes. The plates were then washed three times with water. OD reading at 540 nm was measured to quantify the biofilm mass at the bottom of the wells. Then 95% ethanol was added to dissolve the dye at the bottom and on the wall and the OD reading at 540 nm was measured to quantify the total biofilm mass. To study the overall effect of the compounds (3.6 mg/mL in 100% ethanol as stock solution), it was added with the inoculation and a time course of biofilm mass was measured. Appropriate amounts of 100% ethanol were added to each sample to eliminate the effect of solvent. Each condition had 3-4 replicates on each plate and was performed over multiple days.

In another experiment the test system is bacterial invasion. The experiment is described as follows: Bacterial invasion statement of Example 9. The conditions noted are these: within 15 minutes of administration.
The test system of a further experiment is S. mutans 25175. The experiment is described as follows: Biofilm growth inhibition in polycarbonate tubes. The format is cell-based. The note with it: Streptococcus mutans, 40 μg/mL.
Experiment [3] deals with E. coli laboratory strain JM109. As to the kind of experiment: Biofilm formation inhibition, crystal violet, E. coli laboratory strain JM109. The note with it: Escherichia coli, read-out: inhibited biofilm formation as compared to the controls. It counts as cell-based. On the procedure: as §1
A further experiment concerns E. coli UTI89[pCOMGFP]. The experiment is described as follows: Biofilm pods / intracellular bacterial communities (IBC) in mouse bladders, confocal microscopy. It counts as in vivo, C3H/HeN mice. The protocol: The experiment was performed using the procedures described in Justice, S. et al., Differentiation and development pathways of uropathogenic Escherichia coli in urinary tract pathogenesis.PNAS, 2004, 101(5), p. 1333-1338. Briefly, E. coli UTI89[pCOMGFP] was prepared after retrieval from frozen stocks by inoculating in LB medium statically for approximately 20 hours. Cells were harvested and suspended in 1 ml of PBS. Cells were diluted to achieve approximately a 10^8 CFU or 10^7 CFU input into C3H/HeN mice (2 mice per group).
Mice were deprived of water for approximately two hours. In experiment 1, all mice were anesthetized with 0.15 cc ketamine cocktail. In experiment 2, all mice were anesthetized with isofluorane. In experiment 1, urine was dispelled from the bladders and approximately 40 μg/ml of test compound or an appropriate amount of ethanol as control was introduced into the bladders via catheterization of the urethra using a tubing coated tuberculin syringe. 30 minutes was allowed to elapse. In experiment 2, bladders were not pre-incubated with test compounds. Bladders were then expelled and an inoculum of 10^8 CFU (Experiment 1) or 10^7 CFU (Experiment 2) of E. coli containing 40 μg/ml of test compound or equivalent amount of ethanol as controls were introduced into the bladders as indicated above.
In experiment 1 five hours elapsed and in experiment 2 six hours elapsed, and then mice were anesthetized and sacrificed. The bladders were removed, bisected, stretched, and fixed in 3% paraformaldehyde for 1 hour at room temperature. Bladders were then permeabilized in 0.01% Triton/PBS for 10 minutes and counter stained with TOPRO3 (Molecular Probes) for 10 minutes for visualization by confocal microscopy. Bladders were mounted on Prolong antifade (Molecular Probes).

Turning to `C[C@H]1[C@H](C)CC[C@]2(C(=O)O)CC[C@]3(C)C(=CC[C@@H]4[C@@]5(C)C[C@@H](O)[C@H](O)[C@@](C)(CO)[C@@H]5CC[C@]43C)[C@H]12` [Asiatic acid, asiatic acid], in experiment [1], the MIC is greater than 64 mg/L. In the experiment on cysB gene, the “expression of a cysB gene in E. coli” value is on record as “modulate the expression of a cysB gene”. For the same compound, the inhibition at 4 µg/mL in experiment [2] (4 ug/ml) was roughly 10%. In addition, the inhibition at 8 µg/mL in experiment [2] (8 ug/ml) was roughly 15%. For the same compound, in experiment [2] (16 ug/ml), the inhibition at 16 µg/mL is roughly 50%. For the same compound, the inhibition at 32 µg/mL in experiment [2] (32 ug/ml) is roughly 90%. In the experiment with bacterial invasion, the “bacterial invasion (in words)” value is on record as “significantly reduced bacterial invasion”. This compound also came in with an inhibition at 40 µg/mL with S. mutans 25175 greater than 75%. In experiment [3] (JM 109, 5 ug/ml), the inhibition at 5 µg/mL is roughly 70%. Besides, in experiment [3] (JM 109, 10 ug/ml), the inhibition at 10 µg/mL is roughly 80%. Moreover, the “reduction in biofilm pods or intracellular bacterial communities (IBC) in the bladders of mice as compared to the controls” value in the experiment on E. coli UTI89[pCOMGFP] (experiment 1: 40 μg/ml intravesical, 30 min pre-incubation, 10^8 CFU, five hours) was found to be 77%. Further, in the experiment on E. coli UTI89[pCOMGFP] (experiment 2: 40 μg/ml with inoculum, no pre-incubation, 10^7 CFU, six hours), the “reduction in large biofilm pods or large IBC in the bladders of mice as compared to the controls” value is roughly 60%.
